# System: THP-1 cells
# Test: cDNA microarray analysis of LPS-induced gene transcription in THP-1 cells
# Assay type: cell-based, Human
# Protocol: THP-1 cells were cultured in RPMI1640 medium, supplemented with 10% FBS/100 units/ml Penicillin/10 μg/ml Streptomycin at 37° C., under 5% CO2. […] For the untreated control group (no LPS, no compound) and LPS alone group, equivalent volumes of DMSO were added to the medium. Cells were cultured at 37° C. and pellets were collected at 0 hr, 1 hr, 3 hr, 6 hr, 12 hr & 24 hr. Cell pellets were stored at −80° C. if RNA isolation was not conducted immediately. For experiments to study cytokine secretion in culture supernatants, THP-1 cells were washed twice with PBS, resuspended at 3.4×10^5/ml and cultured in 96-well plates at 250 μL, per well at 37° C. […] Supernatants were collected at different time points as indicated in the figures and were kept at ≦−20° C. until analysis of cytokine production.
# Total RNA was isolated using RNeasy mini kit from QIAGEN (Valencia, Calif.) according to the manufacturer's instructions. RNA samples were stored at −80° C.
# Five μg of total RNA was linearly amplified to double-stranded cDNA using T7-based amplification. The cDNA was purified using the QIAquick 96 PCR purification kit (QIAGEN Valencia, Calif.), and used to generate amplified (a) RNA using AmpliScribe™ T7 High Yield Transcription Kit (Epicentre, Madison, Wis.). Ten μg of purified aRNA was reverse transcribed to cDNA using the SuperScript RTII kit (Invitrogen) and labeled by direct incorporation of Cy3-dCTP. The generated cDNA probe was used for hybridizing to cDNA microarrays.
# Each clone was spotted in duplicate on the array.
# [1] = LPS 100 ng/ml, tipifarnib 5 μM, 3 hr
# [2] = LPS 100 ng/ml, tipifarnib 5 μM, 6 hr
# [3] = LPS 100 ng/ml, tipifarnib 5 μM, 12 hr
# [4] = LPS 100 ng/ml, tipifarnib 5 μM, 24 hr
compound,measurement,setting,value
"Cn1cncc1C(N)(c1ccc(Cl)cc1)c1ccc2c(c1)c(-c1cccc(Cl)c1)cc(=O)n2C (single isomer, unassigned; (+)) [tipifarnib, (+)-6-[amino(4-chlorophenyl)(1-methyl-1H-imidazol-5-yl)methyl]-4-(3-chlorophenyl)-1-methyl-2(1H)-quinolinone]",Fold-change (tipifarnib/LPS vs LPS) STAT1,[1],−1.32
same,Fold-change (tipifarnib/LPS vs LPS) TAP1,[1],1.15
same,Fold-change (tipifarnib/LPS vs LPS) TAP2,[1],−1.15
same,Fold-change (tipifarnib/LPS vs LPS) TIMP3,[1],−1.41
same,Fold-change (tipifarnib/LPS vs LPS) TRIM22,[1],1.00
same,Fold-change (tipifarnib/LPS vs LPS) UBE2L6,[1],−1.07
same,Fold-change (tipifarnib/LPS vs LPS) B2M,[2],−1.23
same,Fold-change (tipifarnib/LPS vs LPS) C3AR1,[2],−1.23
same,Fold-change (tipifarnib/LPS vs LPS) CCL3,[2],−1.07
same,Fold-change (tipifarnib/LPS vs LPS) CCL4,[2],1.07
same,Fold-change (tipifarnib/LPS vs LPS) CCND1,[2],−1.15
same,Fold-change (tipifarnib/LPS vs LPS) IER3,[2],1.15
same,Fold-change (tipifarnib/LPS vs LPS) IFI16,[2],−1.32
same,Fold-change (tipifarnib/LPS vs LPS) IFIT1,[2],−1.41
same,Fold-change (tipifarnib/LPS vs LPS) IGFBP3,[2],1.00
same,Fold-change (tipifarnib/LPS vs LPS) IL8,[2],−1.15
same,Fold-change (tipifarnib/LPS vs LPS) KCNK17,[2],−1.32
same,Fold-change (tipifarnib/LPS vs LPS) LGR7,[2],−1.41
same,Fold-change (tipifarnib/LPS vs LPS) MMP9,[2],−1.41
same,Fold-change (tipifarnib/LPS vs LPS) NEXN,[2],−1.41
same,Fold-change (tipifarnib/LPS vs LPS) NFKB2,[2],−1.07
same,Fold-change (tipifarnib/LPS vs LPS) PTX3,[2],−1.32
same,Fold-change (tipifarnib/LPS vs LPS) S100A9,[2],−1.07
same,Fold-change (tipifarnib/LPS vs LPS) TIMP3,[2],−1.23
same,Fold-change (tipifarnib/LPS vs LPS) UBE2L6,[2],−1.41
same,Fold-change (tipifarnib/LPS vs LPS) ABCB8,[3],−1.23
same,Fold-change (tipifarnib/LPS vs LPS) CCL3,[3],1.23
same,Fold-change (tipifarnib/LPS vs LPS) GNPNAT1,[3],−1.41
same,Fold-change (tipifarnib/LPS vs LPS) IER3,[3],1.00
same,Fold-change (tipifarnib/LPS vs LPS) IFI16,[3],−1.23
same,Fold-change (tipifarnib/LPS vs LPS) IFIT1,[3],−1.32
same,Fold-change (tipifarnib/LPS vs LPS) IL1RN,[3],−1.15
same,Fold-change (tipifarnib/LPS vs LPS) IL8,[3],1.32
same,Fold-change (tipifarnib/LPS vs LPS) KCNK17,[3],1.00
same,Fold-change (tipifarnib/LPS vs LPS) LAP3,[3],−1.23
same,Fold-change (tipifarnib/LPS vs LPS) LY6E,[3],1.15
same,Fold-change (tipifarnib/LPS vs LPS) MX1,[3],1.32
same,Fold-change (tipifarnib/LPS vs LPS) MYD88,[3],−1.23
same,Fold-change (tipifarnib/LPS vs LPS) NEXN,[3],−1.15
same,Fold-change (tipifarnib/LPS vs LPS) NFKB2,[3],−1.32
same,Fold-change (tipifarnib/LPS vs LPS) PTX3,[3],−1.32
same,Fold-change (tipifarnib/LPS vs LPS) STAT1,[3],1.00
same,Fold-change (tipifarnib/LPS vs LPS) TAP1,[3],−1.15
same,Fold-change (tipifarnib/LPS vs LPS) TAP2,[3],−1.32
same,Fold-change (tipifarnib/LPS vs LPS) TIMP3,[3],−1.15
same,Fold-change (tipifarnib/LPS vs LPS) TRIM22,[3],−1.07
same,Fold-change (tipifarnib/LPS vs LPS) UBE2L6,[3],−1.15
same,Fold-change (tipifarnib/LPS vs LPS) ABCB8,[4],−1.23
same,Fold-change (tipifarnib/LPS vs LPS) B2M,[4],1.15
same,Fold-change (tipifarnib/LPS vs LPS) CCND1,[4],−1.23
same,Fold-change (tipifarnib/LPS vs LPS) IER3,[4],1.23
same,Fold-change (tipifarnib/LPS vs LPS) IL1B,[4],−1.23
same,Fold-change (tipifarnib/LPS vs LPS) IL8,[4],−1.07
same,Fold-change (tipifarnib/LPS vs LPS) LY6E,[4],−1.32
same,Fold-change (tipifarnib/LPS vs LPS) MMP9,[4],−1.41
same,Fold-change (tipifarnib/LPS vs LPS) MX1,[4],−1.32
same,Fold-change (tipifarnib/LPS vs LPS) MYD88,[4],−1.32
same,Fold-change (tipifarnib/LPS vs LPS) TAP1,[4],−1.23
same,Fold-change (tipifarnib/LPS vs LPS) TAP2,[4],−1.23
same,Fold-change (tipifarnib/LPS vs LPS) TIMP3,[4],1.15
same,Fold-change (tipifarnib/LPS vs LPS) UBE2L6,[4],−1.41
same,number of LPS-induced transcripts downregulated,"out of 121 genes with at least […] induction by LPS at 2 time points, at least […] decrease at one or more time points",34
